# According to US12631620B2, “Methods of generating organoids for high throughput screening of drugs” (Yissum Research Development Company of the Hebrew …, priority 2019, dated 2026):
# Values joined by “and” are separate entries in the source; they are usually repeats but may differ in a detail not shown here. Equal values may be shown once.
# Legend:
# [1] = system: E6/E7^LOW human hepatocytes; assay: E6/E7LOW human hepatocyte viability assessment (LIVE/DEAD Cytotoxicity kit); type: cell-based; conditions: 24 hours
# Description: E6/E7^LOW human hepatocyte were cultured with different concentrations of compounds dissolved in culture medium for 24 hours. Cell viability was subsequently determined using LIVE/DEAD Cytotoxicity kit (Molecular Probes, USA) according to manufacturer directions. Briefly, cultures were incubated for 30 minutes with 2 μM calcein AM and 3 μM ethidium homodimer-1. Live cells were positive for green fluorescence due to hydrolysis of the acetoxymethyl ester group by intracellular esterases. Dead cells were positive for red fluorescence due to ethidium homodimer-1 binding intracellular DNA, possible in […]. Cellular viability was expressed as live over dead ratio and normalized based on negative (DMSO/DDW/EtOH) and positive (0.1% Saponin) controls. Fluorescence micrographs were analyzed for total fluorescence using ImageJ for 12 repeats for each sample. TC50 and TC20 concentrations were calculated using MATLAB® Curve Fitting Tool. Results were fitted to a sigmoidal curve (Prentice, 1976; Wenner et al., 2011). Error bars indicate ±SE.
# E6/E7^LOW hepatocytes = system: E6/E7^LOW hepatocytes
# Description: According to some embodiments of the invention there is a sensor-integrated liver on chip array in which oxygen is monitored using two-frequency phase modulation of tissue-embedded phosphorescent microprobes, while glucose, lactate and temperature are measured in real time using microfluidic electrochemical sensors. Such a microphysiological platform permits the calculation of dynamic changes in metabolic fluxes around central carbon metabolism, producing a unique metabolic fingerprint of the liver's response to stimuli.
# [2] = system: E6/E7^LOW human hepatocytes; assay: Steatosis and phospholipidosis, HCS LipidTOX detection kit, hepatocyte cultures; type: cell-based
# Description: Quantification of Apoptotic index was performed using DeadEnd™ fluorometric TUNEL System (Promega) according to manufacturer directions. Briefly, cells were treated with TC20 concentrations of compounds dissolved in culture medium for 24 hours, and subsequently fixed in 4% Paraformaldehyde (PFA). Cells were then permeabilized and exposed to fluorescein-12-dUTP and terminal deoxynucleotidyl transferase (TdT). The reaction was subsequently stopped and the cells counterstained with 1 μg/mL Hoechst 33258. Apoptotic cells were positive for green fluorescence in the nucleus. Percentage apoptosis was defined as the number of TUNEL positive nuclei normalized to Hoechst 33258 positive nuclei. Quantification of Steatosis was performed using HCS LipidTOX™ Phospholipidosis and Steatosis Detection Kit (ThermoFisher). Briefly, differentiated cells were incubated with different concentrations of compounds dissolved in culture medium and 1× Phospholipidosis Detection Reagent for 48 hours, subsequently fixed in 4% PFA. Cells were then stained with 1× LipidTOX™ for 20 minutes and counterstained with 1 μg/mL Hoechst 33258. Staining intensity was normalized to number of Hoechst 33258 positive nuclei. Quantification of Bile Secretion was performed using 5(6)-carboxy-2′,7′-dichlorofluorescein diacetate (CDFDA) staining. Briefly, differentiated cells were incubated with different concentrations of compounds dissolved in culture medium for 24 hours. Cells were then treated with 10 μg/mL CDFDA and 1 μg/mL Hoechst 33342 for 30 minutes. Incubation medium was removed and cultures washed with ice-cold PBS containing calcium and magnesium. Staining intensity was normalized to number of Hoechst 33342 positive nuclei. Analysis excluded Intracellular CDFDA staining based on intensity and phase images. All quantifications were made in comparison to cells treated with melatonin as negative control.
# Quantification of Apoptotic index was performed using DeadEnd™ fluorometric TUNEL System (Promega) according to manufacturer directions. Briefly, cells were treated with TC20 concentrations of compounds dissolved in culture medium for 24 hours, and subsequently fixed in 4% Paraformaldehyde (PFA). Cell were then permeabilized and exposed to fluorescein-12-dUTP and terminal deoxynucleotidyl transferase (TdT). The reaction was subsequently stopped and the cells counterstained with 1 μg/mL Hoechst 33258. Apoptotic cells were positive for green fluorescence in the nucleus. […] Quantification of Steatosis was performed using HCS LipidTOX™ Phospholipidosis and Steatosis Detection Kit (ThermoFisher). […] Quantification of Bile Secretion was performed using 5(6)-carboxy-2′,7′-dichlorofluorescein diacetate (CDFDA) staining. […] All quantifications were made in comparison to cells treated with melatonin as negative control.
# [3] = patients on therapy; cited from earlier work
# HepG2/C3A organoids = assay: Neutral lipid and phospholipid staining of HepG2/C3A organoids on chip; type: cell-based, human; conditions: p<0.001, n=9
# [4] = system: E6/E7^LOW human hepatocytes; assay: Apoptotic index, DeadEnd fluorometric TUNEL System; type: cell-based; conditions: 24 hours exposure
compound,measurement,setting,value
Cc1cn([C@H]2C=C[C@@H](CO)O2)c(=O)[nH]c1=O [Stavudine],TC50,[1],800 µM and 800 ± 60 µM
same,ATP production,E6/E7^LOW hepatocytes,relatively unchanged
same,direct mitochondrial damage,E6/E7^LOW hepatocytes,no indication of direct mitochondrial damage
same,"metabolic fluxes (lipogenesis, glycolysis)",E6/E7^LOW hepatocytes,transient increase in lipogenesis followed by global suppression of both glycolysis and lipogenesis
same,increase in lipogenesis,"E6/E7^LOW hepatocytes; flux balance analysis, below threshold of cellular damage, Valproate sustained, Stavudine transient",5%
same,time to onset of slow progressive damage post-exposure,E6/E7^LOW hepatocytes; human,15 to 20 h
same,phospholipidosis,[2],not
same,neutral lipids,"[2]; p<0.001, n=4",strong and significant increase
same,patients with elevated liver enzymes,[3],30%
same,increase in the amount of intracellular lipids,HepG2/C3A organoids,3 fold
same,apoptosis,[4],no evidence of apoptosis
